# Test results as given in publication PMC10327353 (Breast Cancer Research : BCR, 2023).
# Test: Phase 1 study: safety and tolerability
# Type: in vivo
# Protocol: The maximum tolerated dose (MTD) of DZD1516 was defined based on safety data and the Bayesian optimal interval (BOIN) design (Additional file 1). The definition of DLT is provided in Additional file 1.
# The AE grading was assessed according to the NCI-Common Terminology Criteria for Adverse Events (CTCAE) (version 5.0) and was monitored until 28 days after the last dose.
# Eligible patients received single oral dosing of DZD1516 on Cycle 0 Day 1 (C0D1), followed by a 7-day washout. Twice daily oral dosing (bid) of DZD1516 was commenced from C1D1 in a continuous 21-day cycle until disease progression, unacceptable toxicity, or withdrawal of consent. All doses were taken under fed conditions (within 30 minutes after a meal).
# Planned dosing consisted of 25, 50, 100, 200, 300, and 400 mg. Each dose escalation cohort will comprise a minimum of three and a maximum of six evaluable patients (except only one patient in the starting dose cohort). The maximum tolerated dose of DZD1516 was defined according to safety data and the Bayesian optimal interval (BOIN) design. Dose escalation/de-escalation rule with target toxicity rate for the MTD is 0.30 with interval of (0.20, 0.33).
# DLTs were any adverse event (AE) not clearly attributable to the patient’s disease, including ≥ grade 4 hematological toxicities present for ≥ 4 days, grade 3 thrombocytopenia with bleeding, or grade 4 thrombocytopenia lasting for > 5 days, ≥ grade 3 non-hematological toxicities that is dose-limiting in the judgment of the investigators. Any other toxicity that is greater than that at baseline, is clinically significant or unacceptable, and is judged to be a DLT by the SRC. Exceptions included alopecia of any grade and isolated grade 3 laboratory change without clinical sequelae or clinical significance.
# Safety evaluations were conducted at screening, on Day 1, 8, and 15 of Cycle 1, on Day 1 of each subsequent treatment cycle, at the end-of-treatment visit, and clinically indicated. Safety assessments included clinical laboratory measurements (hematology, chemistry, coagulation, and urinalysis), electrocardiogram (ECG), Echocardiogram/MUGA scan, ECOG performance status, vital signs, and physical examinations.
compound,measurement,setting,value
COc1cc(O[C@H]2CCN(C)CC2(F)F)c2c(Nc3ccc(Oc4ccn5ncnc5c4)c(C)c3)ncnc2c1 [DZD1516],"Headache, ≥ Grade 3",200 mg (N = 5),0 (0.0) n (%)
same,"Hemoglobin decreased, Any Grade",200 mg (N = 5),3 (60.0) n (%)
same,"Hemoglobin decreased, ≥ Grade 3",200 mg (N = 5),0 (0.0) n (%)
same,"Investigations, Any Grade",200 mg (N = 5),4 (80.0) n (%)
same,"Investigations, ≥ Grade 3",200 mg (N = 5),1 (20.0) n (%)
same,"Lipase increased, Any Grade",200 mg (N = 5),1 (20.0) n (%)
same,"Lipase increased, ≥ Grade 3",200 mg (N = 5),0 (0.0) n (%)
same,"Malaise, Any Grade",200 mg (N = 5),1 (20.0) n (%)
same,"Malaise, ≥ Grade 3",200 mg (N = 5),0 (0.0) n (%)
same,"Metabolism and nutrition disorders, Any Grade",200 mg (N = 5),3 (60.0) n (%)
same,"Metabolism and nutrition disorders, ≥ Grade 3",200 mg (N = 5),0 (0.0) n (%)
same,"Musculoskeletal and connective tissue disorders, Any Grade",200 mg (N = 5),0 (0.0) n (%)
same,"Musculoskeletal and connective tissue disorders, ≥ Grade 3",200 mg (N = 5),0 (0.0) n (%)
same,"Nausea, Any Grade",200 mg (N = 5),1 (20.0) n (%)
same,"Nausea, ≥ Grade 3",200 mg (N = 5),0 (0.0) n (%)
same,"Nervous system disorders, Any Grade",200 mg (N = 5),2 (40.0) n (%)
same,"Nervous system disorders, ≥ Grade 3",200 mg (N = 5),0 (0.0) n (%)
same,"Participants with any TEAE, Any Grade",200 mg (N = 5),5 (100.0) n (%)
same,"Participants with any TEAE, ≥ Grade 3",200 mg (N = 5),1 (20.0) n (%)
same,"Platelet count decreased, Any Grade",200 mg (N = 5),1 (20.0) n (%)
same,"Platelet count decreased, ≥ Grade 3",200 mg (N = 5),0 (0.0) n (%)
same,"Proteinuria, Any Grade",200 mg (N = 5),2 (40.0) n (%)
same,"Proteinuria, ≥ Grade 3",200 mg (N = 5),0 (0.0) n (%)
same,"Renal and urinary disorders, Any Grade",200 mg (N = 5),2 (40.0) n (%)
same,"Renal and urinary disorders, ≥ Grade 3",200 mg (N = 5),0 (0.0) n (%)
same,Subjects with any TEAE,200 mg (N = 5),5 (100.0) n (%)
same,Subjects with any drug-related TEAE,200 mg (N = 5),5 (100.0) n (%)
same,"Vomiting, Any Grade",200 mg (N = 5),3 (60.0) n (%)
same,"Vomiting, ≥ Grade 3",200 mg (N = 5),0 (0.0) n (%)
same,"White blood cell count decreased, Any Grade",200 mg (N = 5),0 (0.0) n (%)
same,"White blood cell count decreased, ≥ Grade 3",200 mg (N = 5),0 (0.0) n (%)
same,"Alanine aminotransferase increased, Any Grade",250 mg (N = 5),1 (20.0) n (%)
same,"Alanine aminotransferase increased, ≥ Grade 3",250 mg (N = 5),0 (0.0) n (%)
same,"Anemia, Any Grade",250 mg (N = 5),1 (20.0) n (%)
same,"Anemia, ≥ Grade 3",250 mg (N = 5),0 (0.0) n (%)
same,Any TEAE: Grade 3,250 mg (N = 5),1 (20.0) n (%)
same,Any TEAE: Leading to death,250 mg (N = 5),0 (0.0) n (%)
same,Any TEAE: Leading to dose reduction,250 mg (N = 5),0 (0.0) n (%)
same,Any TEAE: Leading to treatment discontinuation,250 mg (N = 5),0 (0.0) n (%)
same,Any TEAE: Leading to treatment interruption,250 mg (N = 5),1 (20.0) n (%)
same,Any TEAE: SAE,250 mg (N = 5),1 (20.0) n (%)
same,"Aspartate aminotransferase increased, Any Grade",250 mg (N = 5),2 (40.0) n (%)
same,"Aspartate aminotransferase increased, ≥ Grade 3",250 mg (N = 5),0 (0.0) n (%)
same,"Blood and lymphatic system disorders, Any Grade",250 mg (N = 5),1 (20.0) n (%)
same,"Blood and lymphatic system disorders, ≥ Grade 3",250 mg (N = 5),0 (0.0) n (%)
same,"Blood bilirubin increased, Any Grade",250 mg (N = 5),1 (20.0) n (%)
same,"Blood bilirubin increased, ≥ Grade 3",250 mg (N = 5),0 (0.0) n (%)
same,"Cardiac disorders, Any Grade",250 mg (N = 5),2 (40.0) n (%)
same,"Cardiac disorders, ≥ Grade 3",250 mg (N = 5),0 (0.0) n (%)
same,"Constipation, Any Grade",250 mg (N = 5),0 (0.0) n (%)
same,"Constipation, ≥ Grade 3",250 mg (N = 5),0 (0.0) n (%)
same,"Decreased appetite, Any Grade",250 mg (N = 5),0 (0.0) n (%)
same,"Decreased appetite, ≥ Grade 3",250 mg (N = 5),0 (0.0) n (%)
same,"Dizziness, Any Grade",250 mg (N = 5),1 (20.0) n (%)
same,"Dizziness, ≥ Grade 3",250 mg (N = 5),0 (0.0) n (%)
same,Drug-related TEAE: Grade 3,250 mg (N = 5),0 (0.0) n (%)
same,Drug-related TEAE: Leading to death,250 mg (N = 5),0 (0.0) n (%)
same,Drug-related TEAE: Leading to dose reduction,250 mg (N = 5),0 (0.0) n (%)
same,Drug-related TEAE: Leading to treatment discontinuation,250 mg (N = 5),0 (0.0) n (%)
same,Drug-related TEAE: Leading to treatment interruption,250 mg (N = 5),0 (0.0) n (%)
same,Drug-related TEAE: SAE,250 mg (N = 5),0 (0.0) n (%)
same,"Fatigue, Any Grade",250 mg (N = 5),1 (20.0) n (%)
same,"Fatigue, ≥ Grade 3",250 mg (N = 5),0 (0.0) n (%)
same,"Gastrointestinal disorders, Any Grade",250 mg (N = 5),1 (20.0) n (%)
same,"Gastrointestinal disorders, ≥ Grade 3",250 mg (N = 5),1 (20.0) n (%)
same,"General disorders and administration site conditions, Any Grade",250 mg (N = 5),2 (40.0) n (%)
same,"General disorders and administration site conditions, ≥ Grade 3",250 mg (N = 5),0 (0.0) n (%)
same,"Headache, Any Grade",250 mg (N = 5),2 (40.0) n (%)
same,"Headache, ≥ Grade 3",250 mg (N = 5),0 (0.0) n (%)
same,"Hemoglobin decreased, Any Grade",250 mg (N = 5),2 (40.0) n (%)
same,"Hemoglobin decreased, ≥ Grade 3",250 mg (N = 5),0 (0.0) n (%)
same,"Investigations, Any Grade",250 mg (N = 5),2 (40.0) n (%)
same,"Investigations, ≥ Grade 3",250 mg (N = 5),0 (0.0) n (%)
same,"Lipase increased, Any Grade",250 mg (N = 5),0 (0.0) n (%)
same,"Lipase increased, ≥ Grade 3",250 mg (N = 5),0 (0.0) n (%)
same,"Malaise, Any Grade",250 mg (N = 5),1 (20.0) n (%)
same,"Malaise, ≥ Grade 3",250 mg (N = 5),0 (0.0) n (%)
same,"Metabolism and nutrition disorders, Any Grade",250 mg (N = 5),1 (20.0) n (%)
same,"Metabolism and nutrition disorders, ≥ Grade 3",250 mg (N = 5),0 (0.0) n (%)
same,"Musculoskeletal and connective tissue disorders, Any Grade",250 mg (N = 5),3 (60.0) n (%)
same,"Musculoskeletal and connective tissue disorders, ≥ Grade 3",250 mg (N = 5),1 (20.0) n (%)
same,"Nausea, Any Grade",250 mg (N = 5),1 (20.0) n (%)
same,"Nausea, ≥ Grade 3",250 mg (N = 5),0 (0.0) n (%)
same,"Nervous system disorders, Any Grade",250 mg (N = 5),4 (80.0) n (%)
same,"Nervous system disorders, ≥ Grade 3",250 mg (N = 5),0 (0.0) n (%)
same,"Participants with any TEAE, Any Grade",250 mg (N = 5),5 (100.0) n (%)
same,"Participants with any TEAE, ≥ Grade 3",250 mg (N = 5),1 (20.0) n (%)
same,"Platelet count decreased, Any Grade",250 mg (N = 5),0 (0.0) n (%)
same,"Platelet count decreased, ≥ Grade 3",250 mg (N = 5),0 (0.0) n (%)
same,"Proteinuria, Any Grade",250 mg (N = 5),0 (0.0) n (%)
same,"Proteinuria, ≥ Grade 3",250 mg (N = 5),0 (0.0) n (%)
same,"Renal and urinary disorders, Any Grade",250 mg (N = 5),0 (0.0) n (%)
same,"Renal and urinary disorders, ≥ Grade 3",250 mg (N = 5),0 (0.0) n (%)
same,Subjects with any TEAE,250 mg (N = 5),5 (100.0) n (%)
same,Subjects with any drug-related TEAE,250 mg (N = 5),4 (80.0) n (%)
same,"Vomiting, Any Grade",250 mg (N = 5),0 (0.0) n (%)
same,"Vomiting, ≥ Grade 3",250 mg (N = 5),0 (0.0) n (%)
same,"White blood cell count decreased, Any Grade",250 mg (N = 5),2 (40.0) n (%)
same,"White blood cell count decreased, ≥ Grade 3",250 mg (N = 5),0 (0.0) n (%)
same,dose-limiting toxicities (DLTs),250 mg cohort,none of the patients in the 250 mg cohort experiencing DLTs
same,"Alanine aminotransferase increased, Any Grade",300 mg (N = 4),1 (25.0) n (%)
same,"Alanine aminotransferase increased, ≥ Grade 3",300 mg (N = 4),0 (0.0) n (%)
same,"Anemia, Any Grade",300 mg (N = 4),0 (0.0) n (%)
same,"Anemia, ≥ Grade 3",300 mg (N = 4),0 (0.0) n (%)
same,Any TEAE: Grade 3,300 mg (N = 4),3 (75.0) n (%)
same,Any TEAE: Leading to death,300 mg (N = 4),0 (0.0) n (%)
same,Any TEAE: Leading to dose reduction,300 mg (N = 4),3 (75.0) n (%)
same,Any TEAE: Leading to treatment discontinuation,300 mg (N = 4),1 (25.0) n (%)
same,Any TEAE: Leading to treatment interruption,300 mg (N = 4),3 (75.0) n (%)
same,Any TEAE: SAE,300 mg (N = 4),0 (0.0) n (%)
same,"Aspartate aminotransferase increased, Any Grade",300 mg (N = 4),1 (25.0) n (%)
same,"Aspartate aminotransferase increased, ≥ Grade 3",300 mg (N = 4),0 (0.0) n (%)
same,"Blood and lymphatic system disorders, Any Grade",300 mg (N = 4),0 (0.0) n (%)
same,"Blood and lymphatic system disorders, ≥ Grade 3",300 mg (N = 4),0 (0.0) n (%)
same,"Blood bilirubin increased, Any Grade",300 mg (N = 4),0 (0.0) n (%)
same,"Blood bilirubin increased, ≥ Grade 3",300 mg (N = 4),0 (0.0) n (%)
same,"Cardiac disorders, Any Grade",300 mg (N = 4),0 (0.0) n (%)
same,"Cardiac disorders, ≥ Grade 3",300 mg (N = 4),0 (0.0) n (%)
same,"Constipation, Any Grade",300 mg (N = 4),1 (25.0) n (%)
same,"Constipation, ≥ Grade 3",300 mg (N = 4),0 (0.0) n (%)
same,"Decreased appetite, Any Grade",300 mg (N = 4),3 (75.0) n (%)
